In the data set the test system is CCRIS mutagenicity, Ames/micronucleus/aberration tests. Kind of data set: CCRIS mutagenicity studies.
The mark [1] stands for this setting: Test System: AMES SALMONELLA TYPHIMURIUM, Strain/Indicator: TA98(1,8-DNP6), Metabolic Activation: NONE, Method: STANDARD PLATE.
Setting [2] is: Test System: AMES SALMONELLA TYPHIMURIUM, Strain/Indicator: TA98(1,8-DNP6), Metabolic Activation: RAT, LIVER, S-9, 3-METHYLCHOLANTHRENE, Method: STANDARD PLATE.
Setting [3] is: Test System: AMES SALMONELLA TYPHIMURIUM, Strain/Indicator: TA98(NR), Metabolic Activation: NONE, Method: STANDARD PLATE.
Setting [4] is: Test System: AMES SALMONELLA TYPHIMURIUM, Strain/Indicator: TA98(NR), Metabolic Activation: RAT, LIVER, S-9, 3-METHYLCHOLANTHRENE, Method: STANDARD PLATE.
Setting [5] is: Test System: AMES SALMONELLA TYPHIMURIUM, Strain/Indicator: TA98, Metabolic Activation: NONE, Method: STANDARD PLATE.
The mark [6] stands for this setting: Test System: AMES SALMONELLA TYPHIMURIUM, Strain/Indicator: TA98, Metabolic Activation: RAT, LIVER, S-9, 3-METHYLCHOLANTHRENE, Method: STANDARD PLATE.
Setting [7] is: Test System: E. COLI, Strain/Indicator: WP2 UVRA, Metabolic Activation: NONE, Method: SPOT.

Activity calls are given as the source filed them. How the calls were made is not given here.

Turning to `O=C1CN(/N=C/c2ccc([N+](=O)[O-])o2)C(=O)N1`, the mutagenic call is, setting by setting: (End Point: IN VITRO CHROMOSOMAL ABERRATIONS, Test System: CHO CELLS, Metabolic Activation: NONE) “active; positive”; (End Point: IN VITRO CHROMOSOMAL ABERRATIONS, Test System: CHO CELLS, Metabolic Activation: RAT, LIVER, S-9, AROCLOR 1254) “active; positive”; (Test System: AMES SALMONELLA TYPHIMURIUM, Strain/Indicator: TA97, Metabolic Activation: NONE, Method: FLUCTUATION TEST) “active; positive”; (Test System: AMES SALMONELLA TYPHIMURIUM, Strain/Indicator: TA97, Metabolic Activation: NONE, Method: STANDARD PLATE) “active; positive”; under setting [1], “active; positive”; under setting [2], “active; positive”. The mutagenic call reads like this: under setting [3], “active; positive”; under setting [4], “active; positive”; (Test System: AMES SALMONELLA TYPHIMURIUM, Strain/Indicator: TA98, Metabolic Activation: HAMSTER, LIVER, S-9, AROCLOR 1254, Method: PREINCUBATION) “active; positive”; (Test System: AMES SALMONELLA TYPHIMURIUM, Strain/Indicator: TA98, Metabolic Activation: NONE) “inactive; negative”; (Test System: AMES SALMONELLA TYPHIMURIUM, Strain/Indicator: TA98, Metabolic Activation: NONE, Method: FLUCTUATION (MICROTITER)) “active; positive”; (Test System: AMES SALMONELLA TYPHIMURIUM, Strain/Indicator: TA98, Metabolic Activation: NONE, Method: PREINCUBATION) “active; positive”. Further, the mutagenic call reads like this: under setting [5], “active; positive”; under setting [6], “active; positive”; (Test System: AMES SALMONELLA TYPHIMURIUM, Strain/Indicator: TA98, Metabolic Activation: RAT, LIVER, S-9, AROCLOR 1254, Method: PREINCUBATION) “active; positive”; (Test System: AMES SALMONELLA TYPHIMURIUM, Strain/Indicator: TA98, Metabolic Activation: S-9) “inactive; negative”; (Test System: AMES SALMONELLA TYPHIMURIUM, Strain/Indicator: TA100, Metabolic Activation: HAMSTER, LIVER, S-9, AROCLOR 1254, Method: PREINCUBATION) “active; positive”; (Test System: AMES SALMONELLA TYPHIMURIUM, Strain/Indicator: TA100, Metabolic Activation: NONE) “active; positive”. Also, the mutagenic call (Test System: AMES SALMONELLA TYPHIMURIUM, Strain/Indicator: TA100, Metabolic Activation: NONE, Method: PREINCUBATION) is “active; positive”; the mutagenic call (Test System: AMES SALMONELLA TYPHIMURIUM, Strain/Indicator: TA100, Metabolic Activation: NONE, Method: STANDARD PLATE) is “active; positive”; the mutagenic call (Test System: AMES SALMONELLA TYPHIMURIUM, Strain/Indicator: TA100, Metabolic Activation: RAT, LIVER, S-9, AROCLOR 1254, Method: PREINCUBATION) was “active; positive”; the mutagenic call (Test System: AMES SALMONELLA TYPHIMURIUM, Strain/Indicator: TA100, Metabolic Activation: S-9) is “active; positive”; the mutagenic call (Test System: AMES SALMONELLA TYPHIMURIUM, Strain/Indicator: TA102, Metabolic Activation: NONE, Method: STANDARD PLATE) is “active; positive”; the mutagenic call (Test System: AMES SALMONELLA TYPHIMURIUM, Strain/Indicator: TA1535, Metabolic Activation: HAMSTER, LIVER, S-9, AROCLOR 1254, Method: PREINCUBATION) is “inactive; negative”. In addition, the mutagenic call (Test System: AMES SALMONELLA TYPHIMURIUM, Strain/Indicator: TA1535, Metabolic Activation: NONE, Method: PREINCUBATION) is “inactive; negative”; the mutagenic call (Test System: AMES SALMONELLA TYPHIMURIUM, Strain/Indicator: TA1535, Metabolic Activation: RAT, LIVER, S-9, AROCLOR 1254, Method: PREINCUBATION) was “inactive; negative”; the mutagenic call (Test System: AMES SALMONELLA TYPHIMURIUM, Strain/Indicator: TA1537, Metabolic Activation: HAMSTER, LIVER, S-9, AROCLOR 1254, Method: PREINCUBATION) was “inactive; negative”; the mutagenic call (Test System: AMES SALMONELLA TYPHIMURIUM, Strain/Indicator: TA1537, Metabolic Activation: NONE, Method: FLUCTUATION (MICROTITER)) is “inactive; negative”; the mutagenic call (Test System: AMES SALMONELLA TYPHIMURIUM, Strain/Indicator: TA1537, Metabolic Activation: NONE, Method: PREINCUBATION) is “inactive; negative”; the mutagenic call (Test System: AMES SALMONELLA TYPHIMURIUM, Strain/Indicator: TA1537, Metabolic Activation: RAT, LIVER, S-9, AROCLOR 1254, Method: PREINCUBATION) is “inactive; negative”. In addition, the mutagenic call reads like this: (Test System: AMES SALMONELLA TYPHIMURIUM, Strain/Indicator: TA2638, Metabolic Activation: NONE, Method: STANDARD PLATE) “active; positive”; (Test System: AMES SALMONELLA TYPHIMURIUM, Strain/Indicator: TA7001, Metabolic Activation: NONE, Method: FLUCTUATION (MICROTITER)) “inactive; negative”; (Test System: AMES SALMONELLA TYPHIMURIUM, Strain/Indicator: TA7002, Metabolic Activation: NONE, Method: FLUCTUATION (MICROTITER)) “active; positive”; (Test System: AMES SALMONELLA TYPHIMURIUM, Strain/Indicator: TA7003, Metabolic Activation: NONE, Method: FLUCTUATION (MICROTITER)) “inactive; negative”; (Test System: AMES SALMONELLA TYPHIMURIUM, Strain/Indicator: TA7004, Metabolic Activation: NONE, Method: FLUCTUATION (MICROTITER)) “active; positive”; (Test System: AMES SALMONELLA TYPHIMURIUM, Strain/Indicator: TA7005, Metabolic Activation: NONE, Method: FLUCTUATION (MICROTITER)) “active; positive”. Besides, the mutagenic call reads like this: (Test System: AMES SALMONELLA TYPHIMURIUM, Strain/Indicator: TA7006, Metabolic Activation: NONE, Method: FLUCTUATION (MICROTITER)) “active; positive”; (Test System: CHINESE HAMSTER OVARY, Strain/Indicator: CHO-AS52, Metabolic Activation: NONE) “inactive; negative”; (Test System: CHINESE HAMSTER OVARY, Strain/Indicator: CHO-AS52, Metabolic Activation: RAT, LIVER, S-9, 3-METHYLCHOLANTHRENE) “inactive; negative”; (Test System: CHINESE HAMSTER OVARY, Strain/Indicator: CHO-K1-BH4, Metabolic Activation: NONE) “inactive; negative”; (Test System: CHINESE HAMSTER OVARY, Strain/Indicator: CHO-K1-BH4, Metabolic Activation: RAT, LIVER, S-9, 3-METHYLCHOLANTHRENE) “active; positive”; (Test System: CHINESE HAMSTER OVARY, Strain/Indicator: CHO-UV5, Metabolic Activation: NONE) “inactive; negative”. The mutagenic call is, setting by setting: (Test System: CHINESE HAMSTER OVARY, Strain/Indicator: CHO-UV5, Metabolic Activation: RAT, LIVER, S-9, 3-METHYLCHOLANTHRENE) “active; positive”; (Test System: E. COLI, Strain/Indicator: EE97, Metabolic Activation: NONE, Method: FLUCTUATION TEST) “active; positive”; (Test System: E. COLI, Strain/Indicator: WP2 (PKM101), Metabolic Activation: NONE, Method: STANDARD PLATE) “active; positive”; (Test System: E. COLI, Strain/Indicator: WP2, Metabolic Activation: NONE, Method: FLUCTUATION TEST) “inactive; negative”; (Test System: E. COLI, Strain/Indicator: WP2, Metabolic Activation: NONE, Method: SPOT) “active; positive”; (Test System: E. COLI, Strain/Indicator: WP2 UVRA (PKM101), Metabolic Activation: NONE, Method: STANDARD PLATE) “active; positive”. Besides, the mutagenic call runs as follows: under setting [7], “active; positive”; (Test System: E. COLI, Strain/Indicator: WP2 UVRA, Metabolic Activation: NONE, Method: STANDARD PLATE) “active; positive”; (Test System: MOUSE LYMPHOMA, Strain/Indicator: L5178Y (TK+/TK-), Metabolic Activation: NONE, Method: SUSPENSION/PLATE) “active; positive”.

As for `CC(=O)OC(OC(C)=O)c1ccc([N+](=O)[O-])o1`, the mutagenic call is, setting by setting: under setting [1], “active; positive”; under setting [2], “active; positive”; under setting [3], “active; positive”; under setting [4], “active; positive”; under setting [5], “active; positive”; under setting [6], “active; positive”. Further, the mutagenic call under setting [7] is “active; positive”.

`Cc1ccc2cc3c(ccc4ccccc43)c3c2c1CC3=O`: the mutagenic call (Test System: CHINESE HAMSTER V-79, Strain/Indicator: V-79/8-AZAGUANINE, Metabolic Activation: RAT, LIVER, S-9, AROCLOR 1254, Method: STANDARD PLATE) is “active; positive”.

The record behind these values is PubChem BioAssay AID1259407 (Chemical Carcinogenesis Research Information System (CCRIS), 2018).
